Experimental data as given in patent publication US20100279942A1, “METHODS FOR TREATING MOTOR NEURON DISEASE” (priority 2004, published 2010).
Ends that are not written are not given here.

How the values were obtained:
[1] = tested on: NSC34 cells transformed with SOD1 mutant (A4T-SOD1, G85R-SOD1, G93R-SOD1) genes; test: Neuronal cell death test, Trypan blue exclusion assay, NSC34 cells transformed with SOD1 mutant genes; format: cell-based, mouse
Experimental: NSC34 cell, the hybrid cell of primary cultured, motor neuron-system embryonic mouse spinal cord cell with mouse neuroblastoma NTG18 cell, was cultured in […] medium containing 10% FBS and antibiotics (Cashman N R, et al., 1992, Dev Dyn 194: 209-221; and Durham H D, et al, 1993, Neurotoxicology 14: 387-395).
The NSC34 cells (7×10^4 cells/well, 6-well plate, 12 to 16-hour culture in DMEM (10% FBS) medium) were transformed with wild-type or SOD1 mutant (A4T, G85R, and G93R) genes by lipofection (0.5 μg of each SOD1 gene; 1 μl of LipofectAMINE; 2 μl of PLUS Reagent) under serum-free conditions for 3 hours and cultured for 21 hours in DMEM (10% FBS) and after 48 hours in DMED supplemented with N2 supplement (Invitrogen). After 72 hours of the transformation, cell mortality was measured by Trypan blue exclusion assay in the same way as above.
F11 or NSC34 cells were transformed with pEF-BOS, A4T-SOD1, G85R-SOD1, or G93R-SOD1 cDNA in the presence of increasing concentrations (10 aM, 1 fM, 100 fM, 10 pM, 1 nM, and 100 nM) of ADNF. After 72 hours, cell mortality was measured by Trypan blue exclusion assay.

SOD1 proteins = test: Immunoblot analysis of SOD1 protein expression in transformed cells; format: cell-based, mouse and rat/mouse hybrid; conditions: ADNF treatment; F11 and NSC34 cells
Experimental: Immunoblot analysis was conducted according to the previous report (Hashimoto Y, et al., supra, p. 6336-6341). To examine the protein expression of wild-type or SOD1 mutant genes, lysates from the cells transfected with each SOD1 gene were subjected to SDS-PAGE (20 μg/lane). After electrical blotting to a PVDF membrane, the membrane was blocked by a typical method and reacted with an anti-SOD1 antibody and then with a 1:5000-diluted horseradish peroxidase-conjugated anti-mouse IgG antibody (Bio-Rad Lab. Hercules, Calif., USA). The antibody-reactive bands were detected by ECL (Amersham Pharmacia Biotech, Uppsala, Sweden).

SALLRSIPA [ADNF, short peptide consisting of nine amino acid residues]
inhibition of neuronal cell death caused by SOD1 mutant genes ([1]; 100 fM ADNF, three SOD1 mutant genes, 72 hours): can completely inhibit neuronal cell death | inhibitory effect on neuronal cell death at high concentration ([1]; ADNF at concentrations equal to or above 10 nM): not decreased | SOD1 gene expression levels (SOD1 proteins): not affected
